The values below come from patent publication US9944597B2, “Polysubstituted pyrroles having microtubule-disrupting, cytotoxic and antitumor activities and methods of use thereof” (THE BOARD OF REGENTS OF THE UNIVERSITY OF TEXAS SYSTEM, priority 2013, dated 2018).

One may read the IC50 as the concentration at which inhibition is half-maximal. Broadly, the EC50 is the concentration giving half of the maximal effect. In general, inhibition refers to the percentage by which the read-out fell short of the control.

For data set [1], the system named is HeLa cells. Nature of the data set: Mitotic spindles by indirect immunofluorescence. It counts as cell-based, human. The settings on record: 18 h, 15 nM or 25 nM. The protocol: The effects of NT-7-16 on mitotic spindles were evaluated in HeLa cells by indirect immunofluorescence. HeLa cells were treated for 18 h with (A) vehicle (DMSO), (B) 15 nM NT-7-16 or (C) 25 nM NT-7-16. […] These effects are consistent with the actions of other microtubule disrupting agents. The presence of lagging chromosomes is indicated by the arrows and is caused by disruption of normal microtubule dynamics.

Data set [2] has as its target T1, purified porcine brain tubulin (Sus scrofa, UniProt P02554).
T1 construct: of Purified Porcine Brain Tubulin; from tissue; host or cells: porcine brain
Nature of the data set: Inhibition of polymerization of purified tubulin (absorbance at 340 nm). It counts as biochemical.

The test system of data set [3] is HeLa cells. Nature of the data set: Cell cycle distribution by flow cytometry. The settings on record: HeLa cells treated for 18 hr; FIG. 3: 25 nM NT-7-16, 12.5 nM paclitaxel. The class given is cell-based, human. Here is the method:
The effects of NT-7-16 on cell cycle distribution were determined. […] The cells were stained with Kirshan's reagent (Kirshan, Cell Biol. 66, 188-93 (1975)), and cell cycle distribution was measured using a Millipore Muse flow cytometer.
The effects of NT-7-16 on cell cycle distribution were determined. […] The cells were stained with Kirshan's reagent (Kirshan Cell Biol. 66, 188-93. (1975)), and cell cycle distribution was measured using a Millipore Muse flow cytometer.
In general terms: Flow cytometry measures light scatter and fluorescence of single cells or particles in a stream.

A further data set concerns MDA-MB-435 xenograft. Nature of the data set: MDA-MB-435 xenograft murine model. It counts as in vivo. The protocol:
The antitumor activity of NT-7-45 was evaluated in the MDA-MB-435 xenograft murine model of cancer. MDA-MB-435 cells were implanted subcutaneously into both flanks of nude mice. Mice were treated periodically with six injections of NT-7-45 i.p. at 75 mg/kg, suspended in a mixture of Tween80, DMSO and PBS.
The antitumor activity of NT-7-16 was evaluated in the MDA-MB-435 xenograft murine model of cancer. MDA-MB-435 cells were implanted subcutaneously into both flanks of nude mice. Mice were treated on days 1, 4, 7, 11, 14, 18, 20 and 22 by injecting NT-7-16 i.p. at 50 mg/kg suspended in a mixture of Tween80, DMSO and PBS. […] As shown in FIG. 5-7, NT-7-16 inhibited tumor growth as compared to vehicle-treated controls in a statistically significant (p<0.05) manner at days 11, 13, 15, 18 and 22.

Data set [4] concerns MDA-MB-435 (human melanoma cancer cells). Nature of the data set: Antiproliferative SRB assay, MDA-MB-435. The class given is cell-based. The settings on record: Homo sapiens, MDA-MB-435; Table 53; own compounds; read-out: MDA-MB-435 Antiproliferative IC50. The method in brief:
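After 24 h attachment, MDA-MB-435 cells were exposed to compounds for 48 h, then fixed with trichloroacetic acid. Cellular protein was quantified by sulforhodamine B staining. IC50 for proliferation inhibition was taken from the linear portion of log concentration–response curves.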

In data set [5] the test system is A-10 cells. Nature of the data set: Cellular microtubule loss by indirect immunofluorescence. The class given is cell-based, rat. The note with it: Rattus norvegicus, A10; Table 53; own compounds; read-out: Microtubule Depolymerization EC50. The gist of the method: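 Rat embryonic vascular smooth muscle cells were treated across a range of compound concentrations. Microtubules were stained by indirect β-tubulin immunofluorescence, with DAPI for DNA. EC50 is the concentration giving about 50% interphase microtubule loss, scored visually, from curves over at least three experiments.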

In data set [6] the target is colchicine binding site on tubulin (Sus scrofa, UniProt P02554). Nature of the data set: Colchicine site binding, fluorometric assay.
colchicine binding site on tubulin, sequence (P02554 whole entry): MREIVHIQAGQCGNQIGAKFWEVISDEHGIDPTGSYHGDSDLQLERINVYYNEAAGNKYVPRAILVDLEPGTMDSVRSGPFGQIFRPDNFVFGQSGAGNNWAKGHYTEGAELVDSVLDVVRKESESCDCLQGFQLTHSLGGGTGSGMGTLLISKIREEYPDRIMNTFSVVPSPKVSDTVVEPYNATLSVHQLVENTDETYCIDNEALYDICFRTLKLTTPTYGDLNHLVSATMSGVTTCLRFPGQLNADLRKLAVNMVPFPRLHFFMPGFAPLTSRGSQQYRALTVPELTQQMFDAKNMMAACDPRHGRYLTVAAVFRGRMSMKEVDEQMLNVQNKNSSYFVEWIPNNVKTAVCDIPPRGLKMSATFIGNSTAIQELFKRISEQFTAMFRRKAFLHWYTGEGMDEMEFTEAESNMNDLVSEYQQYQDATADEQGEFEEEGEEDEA
colchicine binding site on tubulin, sequence (P02550 whole entry partner): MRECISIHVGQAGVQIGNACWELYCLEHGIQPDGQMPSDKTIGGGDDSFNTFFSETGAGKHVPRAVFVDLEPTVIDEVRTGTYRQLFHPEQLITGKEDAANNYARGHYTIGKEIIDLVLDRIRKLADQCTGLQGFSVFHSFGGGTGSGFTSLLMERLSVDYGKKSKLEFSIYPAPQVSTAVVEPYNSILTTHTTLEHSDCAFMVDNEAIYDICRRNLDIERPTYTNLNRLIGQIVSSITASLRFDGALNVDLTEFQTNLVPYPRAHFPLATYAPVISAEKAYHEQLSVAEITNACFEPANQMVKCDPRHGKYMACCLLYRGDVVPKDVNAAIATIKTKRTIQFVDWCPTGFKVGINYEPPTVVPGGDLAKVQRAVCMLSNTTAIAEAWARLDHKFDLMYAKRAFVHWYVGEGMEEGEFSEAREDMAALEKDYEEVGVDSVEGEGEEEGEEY
The subject of data set [7] is MDA-MB-435 (human melanoma cancer cells). The note with it: Table 53; literature data from Da et al. 2013; read-out: MDA-MB-435 Antiproliferative IC50; cited from earlier work.
The test system of data set [8] is variety of cancer cell lines. The note with it: average over a variety of cancer cell lines; read-out: antiproliferative activity, average IC50; cited from earlier work.
Data set [9] relates to A-10 cells. The settings on record: Table 53; literature data from Da et al. 2013; read-out: Microtubule Depolymerization EC50; cited from earlier work.
For another data set, the target named is P-glycoprotein (Homo sapiens, UniProt P08183). The settings on record: cited from earlier work.
P-glycoprotein, sequence (P08183 whole entry): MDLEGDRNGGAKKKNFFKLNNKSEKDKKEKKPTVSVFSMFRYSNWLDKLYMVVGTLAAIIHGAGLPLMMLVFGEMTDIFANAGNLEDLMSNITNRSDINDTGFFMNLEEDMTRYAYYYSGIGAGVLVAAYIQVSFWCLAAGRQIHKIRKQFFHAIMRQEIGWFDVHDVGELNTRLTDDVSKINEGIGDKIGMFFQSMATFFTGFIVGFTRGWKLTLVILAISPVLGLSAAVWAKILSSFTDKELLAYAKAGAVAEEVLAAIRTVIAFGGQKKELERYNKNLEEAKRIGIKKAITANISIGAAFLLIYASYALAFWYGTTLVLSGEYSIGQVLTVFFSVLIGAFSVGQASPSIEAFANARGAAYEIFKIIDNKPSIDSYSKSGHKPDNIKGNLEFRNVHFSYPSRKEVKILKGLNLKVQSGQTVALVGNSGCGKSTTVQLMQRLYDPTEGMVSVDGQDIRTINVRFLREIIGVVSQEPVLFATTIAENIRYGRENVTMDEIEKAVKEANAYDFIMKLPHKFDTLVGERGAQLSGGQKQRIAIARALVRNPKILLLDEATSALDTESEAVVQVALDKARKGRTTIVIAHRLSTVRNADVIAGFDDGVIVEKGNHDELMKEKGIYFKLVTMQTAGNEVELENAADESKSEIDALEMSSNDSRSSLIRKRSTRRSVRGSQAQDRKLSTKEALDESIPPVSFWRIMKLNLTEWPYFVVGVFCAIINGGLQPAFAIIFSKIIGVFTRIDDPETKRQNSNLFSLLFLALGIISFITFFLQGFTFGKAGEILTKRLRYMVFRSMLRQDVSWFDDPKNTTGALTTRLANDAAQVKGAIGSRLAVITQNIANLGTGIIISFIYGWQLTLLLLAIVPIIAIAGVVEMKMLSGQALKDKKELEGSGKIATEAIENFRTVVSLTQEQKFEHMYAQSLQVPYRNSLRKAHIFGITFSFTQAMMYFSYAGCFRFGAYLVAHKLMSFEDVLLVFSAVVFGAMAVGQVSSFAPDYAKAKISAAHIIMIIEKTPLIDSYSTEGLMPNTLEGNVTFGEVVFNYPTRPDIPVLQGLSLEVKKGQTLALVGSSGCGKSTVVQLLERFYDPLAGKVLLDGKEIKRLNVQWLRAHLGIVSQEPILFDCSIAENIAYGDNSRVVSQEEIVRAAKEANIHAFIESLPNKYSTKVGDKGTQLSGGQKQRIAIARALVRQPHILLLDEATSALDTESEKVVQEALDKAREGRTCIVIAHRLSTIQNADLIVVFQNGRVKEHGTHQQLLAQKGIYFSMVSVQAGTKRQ
A further data set deals with PC-3 xenograft. The settings on record: i.p. dosing at relatively high doses, after 14 days of treatment; cited from earlier work.

Each structure is given as a SMILES string. “Also recorded” adds a separate entry of the source. Where two headings read alike, the source gives them in different places.

T1 sequence (P02554 whole entry): as the sequence (P02554 whole entry) above
T1 sequence (P02550 whole entry partner): as the sequence (P02550 whole entry partner) above

Take `CCOC(=O)c1[nH]c(Br)c(-c2ccc(OC)c(OC)c2OC)c1Br` [NT-7-16, 3,5-Dibromo-4-(2,3,4-trimethoxyphenyl)-1H-pyrrole-2-carboxylic acid ethyl ester]: in the data set with HeLa cells [1], the “effects on mitotic spindles” value was “aberrant mitotic spindles”. Also, in data set [2] (at concentrations of 2-5 μM), the “inhibition of tubulin assembly” value is on record as “almost total inhibition”. In addition, in [2] (result in words), the “effect on tubulin polymerization (turbidity, FIG. 2, FIG. 10)” value is reported as “concentration-dependent inhibition of tubulin assembly; also recorded: inhibits tubulin polymerization”. Also, the cell cycle distribution entry with HeLa cells [3] was “initiated mitotic accumulation; also recorded: G2/M arrest”. Besides, the “tumor growth in MDA-MB-435 xenograft” value in the data set with MDA-MB-435 xenograft (50 mg/kg i.p. on days 1, 4, 7, 11, 14, 18, 20, 22, 25-day model) is given as “significant antitumor effects; also recorded: prevented tumor growth; also recorded: statistically significant (p<0.05) inhibition of tumor growth”. For the same compound, the “toxicity in xenograft study” value in the data set with MDA-MB-435 xenograft (50 mg/kg i.p., eight cumulative doses) was “no evidence of toxicity; also recorded: no overt toxicity”. Also, in the data set on MDA-MB-435 xenograft (50 mg/kg i.p., over 25 days), the animal body weight result was “no significant change in animal body weight; also recorded: no significant weight loss”. Further, the IC50 in [4] came to 14 ± 5 nM. For the same compound, the EC50 in the data set on A-10 cells [5] turned out to be 345 nM. Also, the inhibition at 10 µM in data set [6] (read-out: inhibition of colchicine binding to tubulin) was about 80%. Moreover, the “effect on colchicine binding (FIG. 9)” value in data set [6] (result in words) is on record as “concentration dependent inhibition of colchicine binding”.

In the case of `CCOC(=O)c1[nH]c(Br)c(-c2ccc(OC)c(OC)c2)c1Br` [JG-03-14, 4-[(3,4-dimethoxy)-phenyl]-3,5-dibromopyrrole 2-carboxylic acid ethyl ester], the IC50 in data set [7] was 36 ± 2 nM; in [8] it was 62 nM. For the same compound, the EC50 in the data set on A-10 cells [9] was 490 nM. Further, the “substrate for transport by P-glycoprotein” value on P-glycoprotein was “poor substrate”. Moreover, in the data set on PC-3 xenograft, the “reduction in tumor burden” value is “greater than 50%”.
